Laboratory results reported in ChEMBL document CHEMBL4840340, “Design, synthesis, kinetic, molecular dynamics, and hypoglycemic effect characterization of new and potential selective benzimidazole derivatives as Protein Tyrosine Phosphatase 1B inhibitors” (Bioorg Med Chem, 2021).
Active and inactive are the calls of the source. The calls are words filed in the database; no cut-off is given here.

Legend:
[1] = biological target: T1, Tyrosine-protein phosphatase non-receptor type 1 (Homo sapiens) (UniProt P18031); assay: Inhibition of PTP1B (unknown origin) at 20 uM using pNPP as substrate by spectrophotometric analysis
T1 sequence (whole entry): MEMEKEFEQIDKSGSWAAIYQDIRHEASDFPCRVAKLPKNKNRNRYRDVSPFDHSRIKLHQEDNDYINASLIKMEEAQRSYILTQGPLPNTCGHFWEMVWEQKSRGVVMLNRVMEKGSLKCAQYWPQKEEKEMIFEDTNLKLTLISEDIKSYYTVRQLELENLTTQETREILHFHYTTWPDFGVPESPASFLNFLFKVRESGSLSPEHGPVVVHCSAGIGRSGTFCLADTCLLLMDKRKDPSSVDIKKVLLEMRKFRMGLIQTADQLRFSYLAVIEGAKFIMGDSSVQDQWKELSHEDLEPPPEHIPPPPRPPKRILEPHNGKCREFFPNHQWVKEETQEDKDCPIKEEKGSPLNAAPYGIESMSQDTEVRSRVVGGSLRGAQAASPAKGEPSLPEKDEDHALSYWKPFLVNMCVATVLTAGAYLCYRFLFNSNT

[2] = biological target: T1, Tyrosine-protein phosphatase non-receptor type 1 (Homo sapiens); assay: Inhibition of PTP1B (unknown origin) at 40 uM using pNPP as substrate by spectrophotometric analysis
[3] = biological target: T1, Tyrosine-protein phosphatase non-receptor type 1 (Homo sapiens); assay: Mixed type inhibition of PTP1B (unknown origin) using varying levels of pNPP as substrate by Lineweaver-Burk plot analysis
[4] = biological target: T1, Tyrosine-protein phosphatase non-receptor type 1 (Homo sapiens); assay: Inhibition of PTP1B (unknown origin) assessed as inhibition constant for uncompetitive inhibition using pNPP as substrate by spectrophotometric analysis
[5] = biological target: T2, Tyrosine-protein phosphatase non-receptor type 1 (Homo sapiens, UniProt P18031); assay: Inhibition of PTP1B (unknown origin) assessed as inhibition constant using pNPP as substrate by spectrophotometric analysis
T2 sequence (P18031 whole entry): T1 sequence (whole entry)

[6] = system: Rattus norvegicus; assay: Hypoglycemic activity in high fat diet-fed induced type 2 diabetic mellitus Wistar rat model assessed as blood glucose level at 60 mg/kg, ip by glucose tolerance test; assay type: functional

Row | Structure (SMILES) | inhibition [1] | inhibition [2] [%] | inhibition [3] | alphaKi [4] [µM] | Ki [5] [µM] | Activity [6] [%]
1 | O=C(CSc1nc2cc(Oc3cccc4ccccc34)ccc2[nH]1)Nc1nccs1 | inactive | – | – | – | – | –
2 | CCOc1cc2nc(SCC(=O)Nc3ccc(C(=O)O)cc3)[nH]c2cc1Cl | – | 0 | – | – | – | –
3 | CCOC(=O)c1ccc(NC(=O)CSc2nc3cc(Oc4ccc5ccccc5c4)ccc3[nH]2)cc1 | inactive | – | – | – | – | –
4 | O=C(CSc1nc2cc(Oc3cccc4ccccc34)ccc2[nH]1)Nc1ccc(C(=O)O)cc1 | – | 40 | Active | 124 | 30.2 | 19
5 | CCOC(=O)c1ccc(NC(=O)CSc2nc3cc(Oc4cccc5ccccc45)ccc3[nH]2)cc1 | inactive | – | – | – | – | –
6 | O=C(CSc1nc2cc(Oc3ccc4ccccc4c3)c(Cl)cc2[nH]1)Nc1ccc(C(=O)O)cc1 | – | 75 | Active | 37.8 | 12.6 | 28
7 | O=C(CSc1nc2cc(Oc3ccc4ccccc4c3)ccc2[nH]1)Nc1nccs1 | inactive | – | – | – | – | –
8 | O=C(CSc1nc2cc(Oc3ccc4ccccc4c3)c(Cl)cc2[nH]1)Nc1nccs1 | inactive | – | – | – | – | –
9 | Cc1cc(NC(=O)CSc2nc3cc(Oc4ccc5ccccc5c4)ccc3[nH]2)on1 | inactive | – | – | – | – | –
10 | CCOC(=O)c1csc(NC(=O)CSc2nc3cc(Oc4ccc5ccccc5c4)ccc3[nH]2)n1 | inactive | – | – | – | – | –
11 | O=C(CSc1nc2cc(Oc3ccc4ccccc4c3)ccc2[nH]1)Nc1ccc(C(=O)O)cc1 | – | 30 | Active | 113 | 35.2 | 23
12 | O=C(CSc1nc2cc(Oc3cccc4ccccc34)ccc2[nH]1)Nc1ccccc1C(=O)O | – | 45 | Active | 60.6 | 23.3 | 15
